Measurements from patent US9872861B2, “Methods of treatment using selective Bcl-2 inhibitors” (AbbVie Inc., priority 2010, dated 2018).
pEC50, pKi: −log10 of the molar value. Where two headings read alike, the source gives them in different places.

What was measured:
Bcl-XL = Bcl-XL (Homo sapiens, UniProt Q07817); test: TR FRET competitive binding affinity, Bcl-XL; details: read-out: Target Affinity TR FRET, Bcl-XL
Method: A comparison of the binding affinity for each of the compounds was performed to determine target affinity, as measured by Time-Resolved Fluorescence Resonance Energy Transfer (TR FRET).

FL5.12-Bcl-2 cells = test: Cellular efficacy in FL5.12 cells dependent on Bcl-2; format: cell-based, murine; details: Mus musculus, 3% FBS
FL5.12-Bcl-XL cells = test: Cellular efficacy in FL5.12 cells dependent on Bcl-XL; format: cell-based, murine; details: Mus musculus, 3% FBS
RS4;11 cells = test: Cellular efficacy in Bcl-2 dependent tumor cell line RS4;11; format: cell-based, human; details: Homo sapiens, RS4-11; 10% HS
H146 cells = test: Cellular efficacy in Bcl-XL dependent tumor cell line H146; format: cell-based; details: Homo sapiens, NCI-H146; 10% HS
[1] = system: peripheral blood immune cells; test: Peripheral blood lymphocytes in C57BL/6 mice, Cell Dyn hematology analyzer; format: in vivo; details: for inhibition in vivo at 100 mg/kg: Mus musculus, Lymphocyte
Method: The effect of the Bcl-2 selective/Bcl-XL sparing compounds on peripheral blood immune cells was also evaluated in C57BL/6 mice. Mice were treated four days with individual compounds (100 mg/kg, orally every day) and cell numbers were measured with a Cell Dyn hematology analyzer.

[2] = 24 h, 1 oral dose of 100 mg/kg, read-out: Day 1 % Reduction vs. Vehicle
[3] = 96 h, 4 oral doses of 100 mg/kg, read-out: Day 4 % Reduction vs. Vehicle

Chain of Bcl-XL (Q07817 whole entry): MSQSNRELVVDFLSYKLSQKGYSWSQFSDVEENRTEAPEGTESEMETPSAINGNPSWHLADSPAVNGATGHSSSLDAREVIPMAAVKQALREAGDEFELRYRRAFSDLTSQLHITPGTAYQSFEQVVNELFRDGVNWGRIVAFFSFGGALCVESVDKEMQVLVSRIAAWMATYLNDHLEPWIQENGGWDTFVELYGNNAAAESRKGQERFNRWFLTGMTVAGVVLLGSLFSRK

pKi (Bcl-XL)	pEC50 (FL5.12-Bcl-2 cells)	pEC50 (FL5.12-Bcl-XL cells)	pEC50 (RS4;11 cells)	pEC50 (H146 cells)	SMILES	Day 1 Lymphocytes ([1]; 1 oral dose of 100 mg/kg)	Day 4 lymphocytes ([1]; 4 oral doses of 100 mg/kg)	inhibition in vivo at 100 mg/kg [1, 2] [%]	inhibition in vivo at 100 mg/kg [1, 3] [%]
8.14	8.92	7.15	7.49	< 5.30	CC1(C)CCC(CN2CCN(c3ccc(C(=O)NS(=O)(=O)c4ccc(N[C@H]5CC[C@H](N6CCOCC6)CC5)c([N+](=O)[O-])c4)c(Oc4cnc5[nH]ccc5c4)c3)CC2)=C(c2ccc(Cl)cc2)C1 [Compound 4, Trans-4-(4-{[2-(4-chlorophenyl)-4,4-dimethylcyclohex-1-en-1-yl]methyl}piperazin-1-yl)-N-({4-[(4-morpholin-4-ylcyclohexyl)amino]-3-nitrophenyl}sulfonyl)-2-(1H-pyrrolo[2,3-b]pyridin-5-yloxy)benzamide]	2.62 ×10^6	1.72 ×10^6	57	73
8.03			8.57	6.03	CC1(C)CCC(CN2CCN(c3ccc(C(=O)NS(=O)(=O)c4ccc(NC[C@H]5CN(C6CC6)CCO5)c([N+](=O)[O-])c4)c(Oc4cnc5[nH]ccc5c4)c3)CC2)=C(c2ccc(Cl)cc2)C1 [Compound 7, 4-(4-{[2-(4-chlorophenyl)-4,4-dimethylcyclohex-1-en-1-yl]methyl}piperazin-1-yl)-N-{[4-({[(2S)-4-cyclopropylmorpholin-2-yl]methyl}amino)-3-nitrophenyl]sulfonyl}-2-(1H-pyrrolo[2,3-b]pyridin-5-yloxy)benzamide]	0.89 ×10^6	0.95 ×10^6	85	85
7.92			7.92	5.52	CC1(C)CCC(CN2CCN(c3ccc(C(=O)NS(=O)(=O)c4ccc(OCC5(F)CCN(C6COC6)CC5)c(Cl)c4)c(Oc4cnc5[nH]ccc5c4)c3)CC2)=C(c2ccc(Cl)cc2)C1 [Compound 11, N-[(3-chloro-4-{[4-fluoro-1-(oxetan-3-yl)piperidin-4-yl]methoxy}phenyl)sulfonyl]-4-(4-{[2-(4-chlorophenyl)-4,4-dimethylcyclohex-1-en-1-yl]methyl}piperazin-1-yl)-2-(1H-pyrrolo[2,3-b]pyridin-5-yloxy)benzamide]	1.76 ×10^6	1.71 ×10^6	73	80
7.21			7.46	< 5.30	CC1(C)CCC(CN2CCN(c3ccc(C(=O)NS(=O)(=O)c4ccc(OCC5(F)CCOCC5)c(Cl)c4)c(Oc4cnc5[nH]ccc5c4)c3)CC2)=C(c2ccc(Cl)cc2)C1 [Compound 15, N-({3-chloro-4-[(4-fluorotetrahydro-2H-pyran-4-yl)methoxy]phenyl}sulfonyl)-4-(4-{[2-(4-chlorophenyl)-4,4-dimethylcyclohex-1-en-1-yl]methyl}piperazin-1-yl)-2-(1H-pyrrolo[2,3-b]pyridin-5-yloxy)benzamide]	1.85 ×10^6	1.65 ×10^6	72	81
7.82	9.15	7.51	8.68	5.41	CC1(C)CCC(CN2CCN(c3ccc(C(=O)NS(=O)(=O)c4ccc(OCC5(F)CCOCC5)c([N+](=O)[O-])c4)c(Oc4cnc5[nH]ccc5c4)c3)CC2)=C(c2ccc(Cl)cc2)C1 [Compound 16, 4-(4-{[2-(4-chlorophenyl)-4,4-dimethylcyclohex-1-en-1-yl]methyl}piperazin-1-yl)-N-({4-[(4-fluorotetrahydro-2H-pyran-4-yl)methoxy]-3-nitrophenyl}sulfonyl)-2-(1H-pyrrolo[2,3-b]pyridin-5-yloxy)benzamide]	1.77 ×10^6	1.99 ×10^6	73	77
